Columns and labels:
Type in all cases: in vivo
Phakopsora pachyrhizi = Phakopsora pachyrhizi / soybean / preventative (soybean rust); settings: foliar, soybean leaf disks, inoculated one day after application, assessed 12-14 days after application, read-out: control of Phakopsora pachyrhizi (percent disease control compared to untreated)
Description: Phakopsora pachyrhizi/Soybean/Preventative (Soybean Rust) Soybean leaf disks are placed on water agar in multiwell plates (24-well format) and sprayed with the formulated test compound diluted in water. One day after application leaf discs are inoculated by spraying a spore suspension on the lower leaf surface. After an incubation period in a climate cabinet of 24-36 hours in darkness at 20° C. and 75% rh leaf disc are kept at 20° C. with 12 h light/day and 75% rh. The activity of a compound is assessed as percent disease control compared to untreated when an appropriate level of disease damage appears in untreated check leaf disks (12-14 days after application).

[1] = test system: Puccinia recondita f. sp. tritici; assay: Puccinia recondita f. sp. tritici / wheat / leaf disc curative (brown rust); settings: foliar, wheat leaf segments cv. Kanzler, compound applied 1 day after inoculation, assessed 6-8 days after application, read-out: control of Puccinia recondita f. sp. tritici (percent disease control compared to untreated)
Description: Puccinia recondita f. Sp. Tritici/Wheat/Leaf Disc Curative (Brown Rust) Wheat leaf segments cv. Kanzler are placed on agar in multiwell plates (24-well format). The leaf segments are inoculated with a spore suspension of the fungus. Plates are stored in darkness at 19° C. and 75% rh. The formulated test compound diluted in water is applied 1 day after inoculation. The leaf segments are incubated at 19° C. and 75% rh under a light regime of 12 h light/12 h darkness in a climate cabinet and the activity of a compound is assessed as percent disease control compared to untreated when an appropriate level of disease damage appears in untreated check leaf segments (6-8 days after application).

[2] = test system: Puccinia recondita f. sp. tritici; assay: Puccinia recondita f. sp. tritici / wheat / leaf disc preventative (brown rust); settings: foliar, wheat leaf segments cv. Kanzler, inoculated 1 day after application, assessed 7-9 days after application, read-out: control of Puccinia recondita f. sp. tritici (percent disease control compared to untreated)
Description: Puccinia recondita f. Sp. Tritici/Wheat/Leaf Disc Preventative (Brown Rust) Wheat leaf segments cv. Kanzler are placed on agar in multiwell plates (24-well format) and sprayed with the formulated test compound diluted in water. The leaf disks are inoculated with a spore suspension of the fungus 1 day after application. The inoculated leaf segments are incubated at 19° C. and 75% rh under a light regime of 12 h light/12 h darkness in a climate cabinet and the activity of a compound is assessed as percent disease control compared to untreated when an appropriate level of disease damage appears in untreated check leaf segments (7-9 days after application).

[3] = test system: Blumeria graminis f. sp. tritici (Erysiphe graminis f. sp. tritici); assay: Blumeria graminis f. sp. tritici / wheat / leaf disc preventative (powdery mildew on wheat); settings: foliar, wheat leaf segments cv. Kanzler, inoculated 1 day after application, assessed 6-8 days after application, read-out: control of Blumeria graminis f. sp. tritici (percent disease control compared to untreated)
Description: Blumeria graminis f. sp. tritici (Erysiphe graminis f. sp. tritici)/Wheat/Leaf Disc Preventative (Powdery Mildew on Wheat) Wheat leaf segments cv. Kanzler are placed on agar in a multiwell plate (24-well format) and sprayed with the formulated test compound diluted in water. The leaf disks are inoculated by shaking powdery mildew infected plants above the test plates 1 day after application. The inoculated leaf disks are incubated at 20° C. and 60% rh under a light regime of 24 h darkness followed by 12 h light/12 h darkness in a climate chamber and the activity of a compound is assessed as percent disease control compared to untreated when an appropriate level of disease damage appears on untreated check leaf segments (6-8 days after application).

## CCC(CC)OCC(O)(c1cc(C)c(/N=C/N(C)CC)cc1OC)C(F)(F)F (stereo not drawn) [E.024, N-ethyl-N′-[4-[1-(1-ethylpropoxymethyl)-2,2,2-trifluoro-1-hydroxy-ethyl]-5-methoxy-2-methyl-phenyl]-N-methyl-formamidine]
Phakopsora pachyrhizi
  pest or weed control at 200 ppm: ≥ 80%

## CCN(C)/C=N/c1cc(OC)c(C(O)(CO[C@H]2CC[C@H](C)CC2)C(F)(F)F)cc1C (stereo partly drawn) [E.004, N-ethyl-N′-[5-methoxy-2-methyl-4-[2,2,2-trifluoro-1-hydroxy-1-[(4-methylcyclohexoxy)methyl]ethyl]phenyl]-N-methyl-formamidine]
Phakopsora pachyrhizi
  pest or weed control at 200 ppm: ≥ 80%

## CCN(C)/C=N/c1cc(OC)c(C(O)(COCc2ccccc2C)C(F)(F)F)cc1C (stereo not drawn) [E.029, N-ethyl-N′-[5-methoxy-2-methyl-4-[2,2,2-trifluoro-1-hydroxy-1-(o-tolylmethoxymethyl)ethyl]phenyl]-N-methyl-formamidine]
[1]
  pest or weed control at 200 ppm: ≥ 80%
[2]
  pest or weed control at 200 ppm: ≥ 80%
[3]
  pest or weed control at 200 ppm: ≥ 80%

## CCN(C)/C=N/c1cc(OC)c(C(O)(CS(=O)(=O)CC)C(F)(F)F)cc1C (stereo not drawn) [E.067, N-ethyl-N′-[4-[1-(ethylsulfonylmethyl)-2,2,2-trifluoro-1-hydroxy-ethyl]-5-methoxy-2-methyl-phenyl]-N-methyl-formamidine]
[1]
  pest or weed control at 200 ppm: ≥ 80%
[2]
  pest or weed control at 200 ppm: ≥ 80%
[3]
  pest or weed control at 200 ppm: ≥ 80%

## CCN(C)/C=N/c1cc(OC)c(C(O)(COCC(C)(C)C)C(F)(F)F)cc1C (stereo not drawn) [E.008, N′-[4-[1-(2,2-dimethylpropoxymethyl)-2,2,2-trifluoro-1-hydroxy-ethyl]-5-methoxy-2-methyl-phenyl]-N-ethyl-N-methyl-formamidine]
[1]
  pest or weed control at 200 ppm: ≥ 80%
[2]
  pest or weed control at 200 ppm: ≥ 80%
[3]
  pest or weed control at 200 ppm: ≥ 80%

## CCN(C)/C=N/c1cc(OC)c(C(O)(COCCC(C)(C)OC)C(F)(F)F)cc1C (stereo not drawn) [E.019, N-ethyl-N′-[5-methoxy-2-methyl-4-[2,2,2-trifluoro-1-hydroxy-1-[(3-methoxy-3-methyl-butoxy)methyl]ethyl]phenyl]-N-methyl-formamidine]
[1]
  pest or weed control at 200 ppm: ≥ 80%
[2]
  pest or weed control at 200 ppm: ≥ 80%
[3]
  pest or weed control at 200 ppm: ≥ 80%

## CCN(C)/C=N/c1cc(OC)c(C(O)(COCC2(c3ccc(Cl)cc3)CC2)C(F)(F)F)cc1C (stereo not drawn) [E.007, N′-[4-[1-[[1-(4-chlorophenyl)cyclopropyl]methoxymethyl]-2,2,2-triﬂuoro-1-hydroxy-ethyl]-5-methoxy-2-methyl-phenyl]-N-ethyl-N-methyl-formamidine]
[1]
  pest or weed control at 200 ppm: ≥ 80%
[2]
  pest or weed control at 200 ppm: ≥ 80%
[3]
  pest or weed control at 200 ppm: ≥ 80%

## CCN(C)/C=N/c1cc(OC)c(C(O)(CS(=O)(=O)C(C)C)C(F)(F)F)cc1C (stereo not drawn) [E.063, N-ethyl-N′-[5-methoxy-2-methyl-4-[2,2,2-trifluoro-1-hydroxy-1-(isopropylsulfonylmethyl)ethyl]phenyl]-N-methyl-formamidine]
[1]
  pest or weed control at 200 ppm: ≥ 80%
[2]
  pest or weed control at 200 ppm: ≥ 80%
[3]
  pest or weed control at 200 ppm: ≥ 80%

## CCCC1OCC(C)(COCC(O)(c2cc(C)c(/N=C/N(C)CC)cc2OC)C(F)(F)F)CO1 (stereo not drawn) [E.001, N-ethyl-N′-[5-methoxy-2-methyl-4-[2,2,2-trifluoro-1-hydroxy-1-[(5-methyl-2-propyl-1,3-dioxan-5-yl)methoxymethyl]ethyl]phenyl]-N-methyl-formamidine]
[1]
  pest or weed control at 200 ppm: ≥ 80%
[2]
  pest or weed control at 200 ppm: ≥ 80%
[3]
  pest or weed control at 200 ppm: ≥ 80%

## CCN(C)/C=N/c1cc(OC)c(C(O)(COC2CCCC2)C(F)(F)F)cc1C (stereo not drawn) [E.032, N′-[4-[1-(cyclopentoxymethyl)-2,2,2-trifluoro-1-hydroxy-ethyl]-5-methoxy-2-methyl-phenyl]-N-ethyl-N-methyl-formamidine]
Phakopsora pachyrhizi
  pest or weed control at 200 ppm: ≥ 80%

## CCN(C)/C=N/c1cc(OC)c(C(O)(COCCOC)C(F)(F)F)cc1C (stereo not drawn) [E.012, N-ethyl-N′-[5-methoxy-2-methyl-4-[2,2,2-trifluoro-1-hydroxy-1-(2-methoxyethoxymethyl)ethyl]phenyl]-N-methyl-formamidine]
[1]
  pest or weed control at 200 ppm: ≥ 80%
[2]
  pest or weed control at 200 ppm: ≥ 80%
[3]
  pest or weed control at 200 ppm: ≥ 80%
